# Experimental data reported in ChEMBL document CHEMBL4190267, “Discovery of potent molecular chimera (CM358) to treat human metastatic melanoma” (Eur J Med Chem, 2017).
# Activity calls are given as the source filed them. The rule behind the calls is not given here.
# Tests used:
# A 172 [1] = assay: Growth inhibition of human A172 cells up to 25 uM cotreated with colchicine measured after 24 hrs by XTT assay; format: functional, cell-based
# NCI-H1299 [2] = assay: Growth inhibition of human NCI-H1299 cells up to 25 uM cotreated with colchicine measured after 24 hrs by XTT assay; format: functional, cell-based
# PC-3 [3] = assay: Growth inhibition of human PC3 cells up to 25 uM cotreated with colchicine measured after 24 hrs by XTT assay; format: functional, cell-based
# MDA-MB-231 [4] = assay: Growth inhibition of human MDA-MB-231 cells up to 25 uM cotreated with colchicine measured after 24 hrs by XTT assay; format: functional, cell-based
# WM 266-4 [5] = assay: Growth inhibition of human WM266.4 cells up to 25 uM cotreated with colchicine measured after 24 hrs by XTT assay; format: functional, cell-based
# PC-3 [6] = assay: Growth inhibition of human PC3 cells preincubated for 6 hrs followed compound washout measured after 24 hrs by XTT assay; format: functional
# MDA-MB-231 [7] = assay: Growth inhibition of human MDA-MB-231 cells preincubated for 6 hrs followed compound washout measured after 24 hrs by XTT assay; format: functional
# WM 266-4 [8] = assay: Growth inhibition of human WM266.4 cells preincubated for 6 hrs followed compound washout measured after 24 hrs by XTT assay; format: functional
# NCI-H1299 [9] = assay: Growth inhibition of human NCI-H1299 cells preincubated for 6 hrs followed compound washout measured after 24 hrs by XTT assay; format: functional
# A 172 [10] = assay: Growth inhibition of human A172 cells preincubated for 6 hrs followed compound washout measured after 24 hrs by XTT assay; format: functional
# WM 266-4 [11] = assay: Cell cycle arrest in human WM266.4 cells assessed as accumulation at G2 phase at 10 uM cotreated with chlorambucil after 2 hrs by propidium iodide staining based flow cytometry (reference value: 11%); format: functional
# PC-3 [12] = assay: Growth inhibition of human PC3 cells preincubated for 6 hrs cotreated with chlorambucil followed compound washout measured after 24 hrs by XTT assay; format: functional
# [13] = molecular target: DNA topoisomerase 2-alpha (Homo sapiens) (UniProt P11388); assay: Inhibition of human topoisomerase-2alpha assessed as reduction in enzyme-mediated decatenation at 25 uM using kinetoplast DNA as substrate after 25 mins by ethidium bromide staining based agarose gel electrophoresis method
# Chain of DNA topoisomerase 2-alpha (Homo sapiens) (P11388 whole entry): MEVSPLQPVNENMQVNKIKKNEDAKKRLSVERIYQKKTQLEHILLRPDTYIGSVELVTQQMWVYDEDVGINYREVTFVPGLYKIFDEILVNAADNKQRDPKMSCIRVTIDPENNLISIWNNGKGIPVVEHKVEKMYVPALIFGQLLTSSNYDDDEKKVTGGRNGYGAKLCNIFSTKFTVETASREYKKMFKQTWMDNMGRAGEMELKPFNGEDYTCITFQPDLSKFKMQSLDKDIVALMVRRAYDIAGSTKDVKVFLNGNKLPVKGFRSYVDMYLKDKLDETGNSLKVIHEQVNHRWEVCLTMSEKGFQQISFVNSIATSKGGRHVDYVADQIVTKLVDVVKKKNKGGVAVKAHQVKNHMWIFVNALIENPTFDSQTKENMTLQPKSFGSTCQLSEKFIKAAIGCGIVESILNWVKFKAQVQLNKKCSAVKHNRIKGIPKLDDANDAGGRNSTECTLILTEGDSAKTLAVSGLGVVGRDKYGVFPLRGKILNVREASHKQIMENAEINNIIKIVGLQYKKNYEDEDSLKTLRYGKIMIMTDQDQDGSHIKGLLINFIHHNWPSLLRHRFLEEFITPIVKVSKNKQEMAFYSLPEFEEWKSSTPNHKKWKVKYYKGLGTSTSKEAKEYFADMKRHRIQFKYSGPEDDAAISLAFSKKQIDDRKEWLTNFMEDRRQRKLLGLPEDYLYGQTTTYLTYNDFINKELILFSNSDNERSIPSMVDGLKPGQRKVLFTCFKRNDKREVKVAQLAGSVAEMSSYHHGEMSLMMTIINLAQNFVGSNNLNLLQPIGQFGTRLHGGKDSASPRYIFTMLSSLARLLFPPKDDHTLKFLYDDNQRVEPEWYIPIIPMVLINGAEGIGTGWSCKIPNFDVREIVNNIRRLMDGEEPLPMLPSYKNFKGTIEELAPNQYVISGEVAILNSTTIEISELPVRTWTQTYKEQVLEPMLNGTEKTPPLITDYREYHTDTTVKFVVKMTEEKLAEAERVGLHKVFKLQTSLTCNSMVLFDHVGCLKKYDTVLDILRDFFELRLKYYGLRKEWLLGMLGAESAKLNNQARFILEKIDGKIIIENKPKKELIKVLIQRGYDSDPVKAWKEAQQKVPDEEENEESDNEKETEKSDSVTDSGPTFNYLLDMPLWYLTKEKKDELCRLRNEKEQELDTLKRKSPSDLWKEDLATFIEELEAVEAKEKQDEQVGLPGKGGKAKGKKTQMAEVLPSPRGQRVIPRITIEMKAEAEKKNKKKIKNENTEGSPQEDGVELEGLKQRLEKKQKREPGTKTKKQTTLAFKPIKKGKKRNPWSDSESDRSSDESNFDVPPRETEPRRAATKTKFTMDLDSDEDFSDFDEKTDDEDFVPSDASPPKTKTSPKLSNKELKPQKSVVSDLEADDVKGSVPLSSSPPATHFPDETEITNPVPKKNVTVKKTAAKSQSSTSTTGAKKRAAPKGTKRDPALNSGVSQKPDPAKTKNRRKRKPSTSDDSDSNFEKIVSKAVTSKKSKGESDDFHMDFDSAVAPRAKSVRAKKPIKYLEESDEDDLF
# WM 266-4 [14] = assay: Cell cycle arrest in human WM266.4 cells assessed as accumulation at G2 phase at 10 uM cotreated with chlorambucil after 8 hrs by propidium iodide staining based flow cytometry (reference value: 11%); format: functional
# WM 266-4 [15] = assay: Cell cycle arrest in human WM266.4 cells assessed as accumulation at G2 phase at 10 uM cotreated with chlorambucil after 24 hrs by propidium iodide staining based flow cytometry (reference value: 11%); format: functional
# A 172 [16] = assay: Growth inhibition of human A172 cells preincubated for 6 hrs cotreated with chlorambucil followed compound washout measured after 24 hrs by XTT assay; format: functional
# WM 266-4 [17] = assay: Growth inhibition of human WM266.4 cells preincubated for 6 hrs cotreated with chlorambucil followed compound washout measured after 24 hrs by XTT assay; format: functional
# WM 266-4 [18] = assay: Cell cycle arrest in human WM266.4 cells assessed as accumulation at G1 phase at 10 uM cotreated with chlorambucil after 8 hrs by propidium iodide staining based flow cytometry (reference value: 59%); format: functional
# NCI-H1299 [19] = assay: Growth inhibition of human NCI-H1299 cells preincubated for 6 hrs cotreated with chlorambucil followed compound washout measured after 24 hrs by XTT assay; format: functional
# Mus musculus [20] = assay: Toxicity in athymic Foxn1 nu mouse xenografted with human WM266.4 cells assessed as body weight loss at 10 mg/kg, ip cotreated with chlorambucil administered once daily for 3 days followed by resting period of 4 days repeated for 4 weeks starting from 5 days post tumor inoculation; format: organism-based; settings: in vivo
# WM 266-4 [21] = assay: (§1) Antitumor activity against human WM266.4 cells xenografted in athymic Foxn1 nu mouse assessed as tumor growth inhibition at 10 mg/kg, ip cotreated with chlorambucil administered once daily for 7 days followed by resting period of 2 days repeated for 4 weeks starting from 5 days post tumor inoculation; format: functional, organism-based
# WM 266-4 [22] = assay: Cell cycle arrest in human WM266.4 cells assessed as accumulation at G1 phase at 10 uM cotreated with chlorambucil after 2 hrs by propidium iodide staining based flow cytometry (reference value: 59%); format: functional
# WM 266-4 [23] = assay: Cell cycle arrest in human WM266.4 cells assessed as accumulation at S phase at 10 uM cotreated with chlorambucil after 8 hrs by propidium iodide staining based flow cytometry (reference value: 27%); format: functional
# MDA-MB-231 [24] = assay: Growth inhibition of human MDA-MB-231 cells preincubated for 6 hrs cotreated with chlorambucil followed compound washout measured after 24 hrs by XTT assay; format: functional
# WM 266-4 [25] = assay: Cell cycle arrest in human WM266.4 cells assessed as accumulation at S phase at 10 uM cotreated with chlorambucil after 24 hrs by propidium iodide staining based flow cytometry (reference value: 27%); format: functional
# [26] = molecular target: DNA topoisomerase 2-alpha (Homo sapiens) (UniProt P11388); assay: Inhibition of human topoisomerase-2alpha assessed as reduction in enzyme-mediated decatenation at 100 uM using kinetoplast DNA as substrate after 25 mins by ethidium bromide staining based agarose gel electrophoresis method
# WM 266-4 [27] = assay: Cell cycle arrest in human WM266.4 cells assessed as accumulation at G1 phase at 10 uM cotreated with chlorambucil after 24 hrs by propidium iodide staining based flow cytometry (reference value: 59%); format: functional
# WM 266-4 [28] = assay: as §1, with “for 3” for “for 7”, “of 4” for “of 2”; format: functional, organism-based
# WM 266-4 [29] = assay: Cell cycle arrest in human WM266.4 cells assessed as accumulation at S phase at 10 uM cotreated with chlorambucil after 2 hrs by propidium iodide staining based flow cytometry (reference value: 27%); format: functional
# Mus musculus [30] = assay: Toxicity in athymic Foxn1 nu mouse xenografted with human WM266.4 cells assessed as body weight loss at 10 mg/kg, ip cotreated with chlorambucil administered once daily for 7 days followed by resting period of 2 days repeated for 4 weeks starting from 5 days post tumor inoculation; format: organism-based; settings: in vivo
# A 172 [31] = assay: Growth inhibition of human A172 cells up to 25 uM measured after 24 hrs by XTT assay; format: functional, cell-based
# PC-3 [32] = assay: Growth inhibition of human PC3 cells up to 25 uM measured after 24 hrs by XTT assay; format: functional, cell-based
# WM 266-4 [33] = assay: Growth inhibition of human WM266.4 cells up to 25 uM measured after 24 hrs by XTT assay; format: functional, cell-based
# WM 266-4 [34] = assay: Growth inhibition of human WM266.4 cells up to 25 uM measured up to 96 hrs by XTT assay; format: functional, cell-based
# MDA-MB-231 [35] = assay: Growth inhibition of human MDA-MB-231 cells up to 25 uM measured after 24 hrs by XTT assay; format: functional, cell-based
# NCI-H1299 [36] = assay: Growth inhibition of human NCI-H1299 cells up to 25 uM measured after 24 hrs by XTT assay; format: functional, cell-based
compound,measurement,setting,value
CC[C@@]1(O)C(=O)OCc2c1cc1n(c2=O)Cc2cc3ccccc3nc2-1,growth inhibition (GI),A 172 [1],Active
same,growth inhibition (GI),NCI-H1299 [2],Active
same,growth inhibition (GI),PC-3 [3],Active
same,growth inhibition (GI),MDA-MB-231 [4],Active
same,growth inhibition (GI),WM 266-4 [5],Active
O=C(CCCc1ccc(N(CCCl)CCCl)cc1)Nc1ccn([C@@H]2O[C@H](CO)[C@@H](O)[C@@H]2O)c(=O)n1,growth inhibition (GI),PC-3 [6],inactive
same,growth inhibition (GI),MDA-MB-231 [7],inactive
same,growth inhibition (GI),WM 266-4 [8],inactive
same,growth inhibition (GI),NCI-H1299 [9],inactive
same,growth inhibition (GI),A 172 [10],inactive
CN(C)CCN1C(=O)c2cccc3cc(N)cc(c23)C1=O [AMONAFIDE],Activity,WM 266-4 [11],9.8%
same,GI50,PC-3 [12],> 25 µM
same,inhibition,[13],inactive
same,GI50,PC-3 [6],> 25 µM
same,Activity,WM 266-4 [14],23%
same,Activity,WM 266-4 [15],26%
same,GI50,MDA-MB-231 [7],> 25 µM
same,GI50,A 172 [16],> 25 µM
same,GI50,WM 266-4 [17],> 25 µM
same,Activity,WM 266-4 [18],29%
same,GI50,WM 266-4 [8],> 25 µM
same,GI50,NCI-H1299 [19],> 25 µM
same,Activity,Mus musculus [20],Toxic
same,TGI,WM 266-4 [21],inactive
same,Activity,WM 266-4 [22],63.5%
same,Activity,WM 266-4 [23],44.7%
same,GI50,MDA-MB-231 [24],> 25 µM
same,Activity,WM 266-4 [25],39%
same,inhibition,[26],Active
same,Activity,WM 266-4 [27],35%
same,TGI,WM 266-4 [28],inactive
same,GI50,NCI-H1299 [9],> 25 µM
same,GI50,A 172 [10],> 25 µM
same,Activity,WM 266-4 [29],26%
same,Activity,Mus musculus [30],Toxic
CC[C@@]1(OC(=O)N[C@H]2CCc3cc(OC)c(OC)c(OC)c3-c3ccc(OC)c(=O)cc32)C(=O)OCc2c1cc1n(c2=O)Cc2cc3ccccc3nc2-1,growth inhibition (GI),A 172 [31],inactive
same,growth inhibition (GI),PC-3 [32],inactive
same,growth inhibition (GI),WM 266-4 [33],inactive
same,growth inhibition (GI),WM 266-4 [34],inactive
same,growth inhibition (GI),MDA-MB-231 [35],inactive
same,growth inhibition (GI),NCI-H1299 [36],inactive
